Publication PMC10579241, “Impact of trifluoromethyl and sulfonyl groups on the biological activity of novel aryl-urea derivatives: synthesis, in-vitro, in-silico and SAR studies” (Scientific Reports, 2023)
Values after ≈ are worked out from the molar mass of the structure shown. Where two headings read alike, the source gives them in different places. Marks after values point to notes of the source that are not given here.

How the values were obtained:
[1] = test system: Bacillus mycoides; test: microbe, parasite or virus in culture; assay type: cell-based
[2] = test system: Escherichia coli; test: Agar well diffusion, E. coli; assay type: cell-based; details: Escherichia coli, read-out: Inhibition zones diameter
[3] = test system: Candida albicans; test: Agar well diffusion, C. albicans; assay type: cell-based
[4] = test system: Bacillus mycoides; test: microbe, parasite or virus in culture; assay type: cell-based; remark: listed apart in the source
[5] = test system: Escherichia coli; test: MIC by serial dilution (agar wells), E. coli; assay type: cell-based
[6] = test system: Candida albicans; test: MIC by serial dilution (agar wells), C. albicans; assay type: cell-based
[7] = test system: human lung carcinoma (A549); test: cells; assay type: cell-based
[8] = test system: colon cancer (HCT116); test: cells; assay type: cell-based; details: Homo sapiens
[9] = test system: prostate cancer (PC3); test: cells; assay type: cell-based; details: Homo sapiens, 48 h
[10] = test system: skin cancer (A431); test: cells; assay type: cell-based; details: Homo sapiens, A-431, 100 μg/mL, 48 h
[11] = test system: hepatocellular carcinoma cell line (HePG2); test: cells; assay type: cell-based; details: Homo sapiens, 48 h
[12] = test system: osteosarcoma cell line (HOS); test: cells; assay type: cell-based; details: Homo sapiens, 48 h, 100 μg/mL
[13] = test system: pancreatic cancer cell line (PACA2); test: cells; assay type: cell-based; details: Homo sapiens, PaCa-2, 48 h
[14] = in vitro; assay type: cell-based; details: human, BJ1 normal skin fibroblast cells, 100 μg/mL
[15] = test system: EGFR; test: qRT-PCR, EGFR in A549 cells; assay type: cell-based, human; details: versus negative samples
[16] = test system: KRAS; test: qRT-PCR, KRAS in A549 cells; assay type: cell-based, human; details: versus negative samples
[17] = test system: A549; test: DNA damage, comet assay, A549; assay type: cell-based, human
[18] = test system: A549; test: DNA fragmentation assay, A549; assay type: cell-based, human
[19] = read-out: Minimum inhibition concentration (MIC)
[20] = 0.00488 mg/mL, 150 µL in DMSO, 15 mm agar well
[21] = 0.00975 mg/mL, 150 µL in DMSO, 15 mm agar well
[22] = 0.0195 mg/mL, 150 µL in DMSO, 15 mm agar well
[23] = 0.0391 mg/mL, 150 µL in DMSO, 15 mm agar well
[24] = 0.0781 mg/mL, 150 µL in DMSO, 15 mm agar well
[25] = 0.1563 mg/mL, 150 µL in DMSO, 15 mm agar well
[26] = 0.3125 mg/mL, 150 µL in DMSO, 15 mm agar well
[27] = 0.625 mg/mL, 150 µL in DMSO, 15 mm agar well
[28] = 1.25 mg/mL, 150 µL in DMSO, 15 mm agar well
[29] = 2.50 mg/mL, 150 µL in DMSO, 15 mm agar well
[30] = 5.00 mg/mL, 150 µL in DMSO, 15 mm agar well
[31] = 10.0 mg/mL, 150 µL in DMSO, 15 mm agar well

## Cc1ccc(S(=O)(=O)NC(=O)Nc2ccc(OC(F)(F)F)cc2)cc1 [Compound 8, 4-Methyl-N-[(4-{trifluoromethoxy}phenyl)carbamoyl]benzenesulfonamide]
[1]; B. mycoides, 200 μL of 10 mg/mL in DMSO in 15 mm holes, overnight 37 °C
  Inhibition zones diameter: 37 ± 0.23 mm
[1]; Bacillus mycoides, read-out: Inhibition zones diameter
  zone of inhibition at 10000 µg/mL: 37 mm
[2]
  zone of inhibition at 10000 µg/mL: 29 ± 0.44 mm
[3]; C. albicans, 200 μL of 10 mg/mL in DMSO in 15 mm holes, overnight 37 °C
  Inhibition zones diameter: 38 ± 0.67 mm
[3]; Candida albicans, read-out: Inhibition zones diameter
  zone of inhibition at 10000 µg/mL: 38 mm
[4]; read-out: Inhibition zone
  zone of inhibition at 4.88 µg/mL: 17 mm
  zone of inhibition at 9.75 µg/mL: 17 mm
  zone of inhibition at 19.5 µg/mL: 17 mm
  zone of inhibition at 39.1 µg/mL: 17 mm
  zone of inhibition at 78.1 µg/mL: 17 mm
  zone of inhibition at 156.3 µg/mL: 17 mm
  zone of inhibition at 312.5 µg/mL: 20 mm
  zone of inhibition at 625 µg/mL: 23 mm
  zone of inhibition at 1250 µg/mL: 26 mm
  zone of inhibition at 2500 µg/mL: 27 mm
  zone of inhibition at 5000 µg/mL: 27 mm
  zone of inhibition at 10000 µg/mL: 32 mm
[4]; [19]
  MIC: 4.88 µg/mL (≈ 13 µM)
[5]; [20]
  zone of inhibition at 4.88 µg/mL: 16 mm
[5]; [21]
  zone of inhibition at 9.75 µg/mL: 17 mm
[5]; [22]
  zone of inhibition at 19.5 µg/mL: 17 mm
[5]; [23]
  zone of inhibition at 39.1 µg/mL: 18 mm
[5]; [24]
  zone of inhibition at 78.1 µg/mL: 18 mm
[5]; [25]
  zone of inhibition at 156.3 µg/mL: 19 mm
[5]; [26]
  zone of inhibition at 312.5 µg/mL: 23 mm
[5]; [27]
  zone of inhibition at 625 µg/mL: 25 mm
[5]; [28]
  zone of inhibition at 1250 µg/mL: 27 mm
[5]; [29]
  zone of inhibition at 2500 µg/mL: 28 mm
[5]; [30]
  zone of inhibition at 5000 µg/mL: 29 mm
[5]; [31]
  zone of inhibition at 10000 µg/mL: 32 mm
[5]; [19]
  MIC: 4.88 µg/mL (≈ 13 µM)
[6]; [20]
  zone of inhibition at 4.88 µg/mL: 16 mm
[6]; [21]
  zone of inhibition at 9.75 µg/mL: 17 mm
[6]; [22]
  zone of inhibition at 19.5 µg/mL: 17 mm
[6]; [23]
  zone of inhibition at 39.1 µg/mL: 17 mm
[6]; [24]
  zone of inhibition at 78.1 µg/mL: 18 mm
[6]; [25]
  zone of inhibition at 156.3 µg/mL: 23 mm
[6]; [26]
  zone of inhibition at 312.5 µg/mL: 25 mm
[6]; [27]
  zone of inhibition at 625 µg/mL: 27 mm
[6]; [28]
  zone of inhibition at 1250 µg/mL: 28 mm
[6]; [29]
  zone of inhibition at 2500 µg/mL: 30 mm
[6]; [30]
  zone of inhibition at 5000 µg/mL: 32 mm
[6]; [31]
  zone of inhibition at 10000 µg/mL: 34 mm
[6]; [19]
  MIC: 4.88 µg/mL (≈ 13 µM)
[7]; A549, 48 h, 100 μg/mL
  mortality at 100 µg/mL: 100%
[7]; MTT, 48 h
  IC50: 55.8 ± 0.11 µM
[8]; HCT-116, 48 h, 100 μg/mL
  mortality at 100 µg/mL: 100%
[8]; HCT-116, MTT, 48 h
  IC50: 47.3 ± 0.91 µM
[9]; 100 μg/mL
  mortality at 100 µg/mL: 100%
[9]; MTT
  IC50: 57.2 ± 0.39 µM
[10]
  mortality at 100 µg/mL: 27.5 ± 0.64%
[11]; 100 μg/mL
  mortality at 100 µg/mL: 100%
[11]; MTT
  IC50: 74 ± 0.29 µM
[12]
  mortality at 100 µg/mL: > 50%
[13]; 100 μg/mL
  mortality at 100 µg/mL: 100%
[13]; MTT
  IC50: 22.4 ± 0.49 µM
[14]
  mortality at 48 h, 100 µg/mL: 6.2 ± 1.54%
[15]
  EGFR gene expression level: significant reduction
[16]
  KRAS gene expression level: significant reduction
[17]
  DNA damaged cells % (mean ± SEM): 24.75 ± 1.03^a %
[17]; of 400 cells analyzed
  Class 0 (no tail), number of cells: 301
  Class 1 (tail length < diameter of nucleus), number of cells: 39
  Class 2 (tail length between 1 and 2 × the diameter of nucleus), number of cells: 38
  Class 3 (tail length > 2 × the diameter of nucleus), number of cells: 22
  No. of cells, Comets: 99
[18]
  Change (DNA fragmentation versus untreated cells): 22.8
[18]; IC50 concentration, 24 h
  DNA fragmentation % M ± SEM: 34.2 ± 0.57^a %
[18]; doxorubicin = 0.0
  Inhibition: 16.92
